# Measurements taken from BindingDB's records for doi:10.1016/j.bmcl.2005.11.096 (Glaxosmithkline, 2006).
# Test: Agonist activity as induced proliferation in Ba/F3-hTpoR murine lymphocyte expressing human TPOR
row,EC50 [nM],Structure (SMILES)
1,4500,CC(=Cc1ccc2nc(-c3cccc(-c4ccc(C(C)(C)C)cc4)n3)[nH]c2c1)C(=O)O [3-(2-(6-(4-tert-butylphenyl)pyridin-2-yl)-1H-benzo[d]imidazol-5-yl)-2-methylacrylic acid]
2,2000,CC(C)(C)c1ccc(-c2cccc(-c3nc4ccc(C=C5SC(S)=NC5=O)cc4[nH]3)n2)cc1 [5-((2-(6-(4-tert-butylphenyl)pyridin-2-yl)-1H-benzo[d]imidazol-5-yl)methylene)-2-thioxothiazolidin-4-one]
3,10000,CC(C)(C)c1ccc(-c2cccc(-c3nc4ccc(CC(C(=O)O)C(=O)O)cc4[nH]3)n2)cc1 [2-((2-(6-(4-tert-butylphenyl)pyridin-2-yl)-1H-benzo[d]imidazol-5-yl)methyl)malonic acid]
4,900,CC(C)(C)c1ccc(-c2cccc(-c3nc4ccc(C=C5SC(=S)NC5=O)cc4[nH]3)c2)cc1 [5-[1-[2-(4'-tert-Butyl-biphenyl-3-yl)-1H-benzoimidazol-5-yl]-methylidene]-2-thioxo-thiazolidin-4-one]
5,1750,"Cc1ccc(-c2ccc(-c3nc4ccc(C=C5SC(S)=NC5=O)cc4[nH]3)s2)cc1C [5-((2-(5-(3,4-dimethylphenyl)thiophen-2-yl)-1H-benzo[d]imidazol-5-yl)methylene)-2-thioxothiazolidin-4-one]"
6,720,CC(C)(C)c1ccc(-c2ccc(-c3nc4ccc(C=C5SC(=S)NC5=O)cc4[nH]3)o2)cc1 [5-((2-(5-(4-tert-butylphenyl)furan-2-yl)-1H-benzo[d]imidazol-5-yl)methylene)-2-thioxothiazolidin-4-one]
7,1600,"Cc1ccc(-c2cccc(-c3nc4ccc(C=C5SC(S)=NC5=O)cc4[nH]3)n2)cc1C [5-((2-(6-(3,4-dimethylphenyl)pyridin-2-yl)-1H-benzo[d]imidazol-5-yl)methylene)-2-thioxothiazolidin-4-one]"
8,780,"Cc1ccc(-c2csc(-c3nc4ccc(C=C5SC(S)=NC5=O)cc4[nH]3)c2)cc1C [5-((2-(4-(3,4-dimethylphenyl)thiophen-2-yl)-1H-benzo[d]imidazol-5-yl)methylene)-2-thioxothiazolidin-4-one]"
